# From patent US20020037931A1, “Substituted nitrated catechols, their use in the treatment of some central and peripheral nervous system disorders and pharmaceutical compositions containing them” (priority 2000, published 2002)
# How the values were obtained:
# COMT [1] = test: COMT activity (methylation of adrenaline to metanephrine) in rat liver homogenates; type: biochemical; settings: rat liver homogenate; test compound 3 μM; means±SEM, n=4-8
# COMT [2] = target: T1, COMT (Homo sapiens, UniProt P21964); test: COMT activity in intact SK-N-SH cell monolayers; type: cell-based; settings: SK-N-SH cells; test compound 100 nM; means±SEM, n=4-8
# T1 construct: COMT activity was evaluated in cell monolayers by the ability to methylate adrenaline; host or cells: SK-N-SH cells
# T1 sequence (P21964 1-271): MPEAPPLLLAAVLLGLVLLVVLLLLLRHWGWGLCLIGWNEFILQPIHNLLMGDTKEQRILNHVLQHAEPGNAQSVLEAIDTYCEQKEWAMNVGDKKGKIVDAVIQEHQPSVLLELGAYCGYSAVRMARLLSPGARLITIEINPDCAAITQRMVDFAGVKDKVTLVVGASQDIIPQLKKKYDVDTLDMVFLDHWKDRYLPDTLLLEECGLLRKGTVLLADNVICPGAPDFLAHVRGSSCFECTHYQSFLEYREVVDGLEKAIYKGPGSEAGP
# COMT [3] = test: COMT activity (methylation of adrenaline to metanephrine) in rat brain homogenates; type: biochemical; settings: rat brain homogenate; test compound 100 nM; means±SEM, n=4-8
SMILES,"COMT activity, Liver (% of control) (COMT [1])","COMT activity, SK-N-SH (% of control) (COMT [2])","COMT activity, Brain (% of control) (COMT [3])"
"O=C1CCCc2cc(O)c(O)c([N+](=O)[O-])c21 [Compound 1, 6,7-Dihydroxy-8-nitro-3,4-dihydro-2H-naphthalen-1-one]",1.2 ± 0.2 % of control,46 ± 1 % of control,15 ± 4 % of control
"O=C1CCc2cc(O)c(O)c([N+](=O)[O-])c21 [Compound 2, 5,6-Dihydroxy-7-nitro-indan-1-one]",1.3 ± 0.7 % of control,24 ± 1 % of control,9 ± 1 % of control
"COc1ccc(C=C2CCc3cc(O)c(O)c([N+](=O)[O-])c3C2=O)cc1OC [Compound 4, 2-(3,4-Dimethoxy-benzylidene)-6,7-dihydroxy-8-nitro-3,4-dihydro-2H-naphthalen-1-one]",2.0 ± 1.0 % of control,25 ± 1 % of control,20 ± 2 % of control
"O=[N+]([O-])c1c(O)c(O)cc2c1C(=NO)CC2 [Compound 6, 5,6-Dihydroxy-7-nitro-indan-1-one Oxime]",1.77 ± 0.1 % of control,39 ± 3 % of control,33 ± 1 % of control
"COc1ccc(C=C2Cc3cc(O)c(O)c([N+](=O)[O-])c3C2=O)cc1OC [Compound 7, 2-(3,4-Dimethoxy-benzylidene)-5,6-dihydroxy-7-nitro-indan-1-one]",0.6 ± 0.3 % of control,23 ± 1 % of control,14 ± 1 % of control
"CN(C)c1ccc(C=C2Cc3cc(O)c(O)c([N+](=O)[O-])c3C2=O)cc1 [Compound 8, 2-(4-dimethylamino-benzylidene)-5,6-dihydroxy-7-nitro-indan-1-one]",1.0 ± 0.1 % of control,48 ± 3 % of control,30 ± 4 % of control
"CN(C)c1ccc(C=C2CCc3cc(O)c(O)c([N+](=O)[O-])c3C2=O)cc1 [Compound 9, 2-(4-Dimethylamino-benzylidene)-6,7-dihydroxy-8-nitro-3,4-dihydro-2H-naphthalen-1-one]",9.0 ± 1.6 % of control,8 ± 1 % of control,47 ± 5 % of control
"COc1cc(C=C2Cc3cc(O)c(O)c([N+](=O)[O-])c3C2=O)cc([N+](=O)[O-])c1O [Compound 10, 5,6-Dihydroxy-2-(4-hydroxy-3-methoxy-5-nitro-benzylidene)-7-nitro-indan-1-one]",0.3 ± 0.1 % of control,24 ± 2 % of control,14 ± 1 % of control
"COc1cc(C=C2CCc3cc(O)c(O)c([N+](=O)[O-])c3C2=O)cc([N+](=O)[O-])c1O [Compound 11, 6,7-Dihydroxy-2-(4-hydroxy-3-methoxy-5-nitro-benzylidene)-8-nitro-3,4-dihydro-2H-naphthalen-1-one]",1.1 ± 0.3 % of control,47 ± 2 % of control,32 ± 2 % of control
"O=C1C(=Cc2ccc(O)c(O)c2)Cc2cc(O)c(O)c([N+](=O)[O-])c21 [Compound 12, 2-(3,4-dihydroxy-benzylidene)-5,6-dihydroxy-7-nitro-indan-1-one]",0.6 ± 0.0 % of control,34 ± 1 % of control,18 ± 1 % of control
"O=C1C(=Cc2ccc(O)c(O)c2)CCc2cc(O)c(O)c([N+](=O)[O-])c21 [Compound 13, 2-(3,4-Dihydroxy-benzylidene)-6,7-dihydroxy-8-nitro-3,4-dihydro-2H-naphthalen-1-one]",2.3 ± 0.1 % of control,46 ± 1 % of control,27 ± 1 % of control
"O=C(CCc1ccccc1)c1ccc(O)c(O)c1[N+](=O)[O-] [Compound 14, 1-(3,4-Dihydroxy-2-nitro-phenyl)-3-phenyl-propan-1-one]",0.3 ± 0.0 % of control,5 ± 2 % of control,5 ± 1 % of control
"O=C(CCCc1ccccc1)c1ccc(O)c(O)c1[N+](=O)[O-] [Compound 15, 1-(3,4-dihydroxy-2-nitro-phenyl)4-phenyl-butan-1-one]",0.5 ± 0.0 % of control,13 ± 4 % of control,7 ± 2 % of control
"O=C1C(=Cc2cc(O)c(O)c([N+](=O)[O-])c2)Cc2cc(O)c(O)c([N+](=O)[O-])c21 [Compound 16, 2-(3,4-Dihydroxy-5-nitro-benzylidene)-5,6-dihydroxy-7-nitro-indan-1-one]",2.0 ± 0.2 % of control,92 ± 1 % of control,20 ± 1 % of control
"CCCCC(=O)c1ccc(O)c(O)c1[N+](=O)[O-] [Compound 17, 1-(3,4-dihydroxy-2-nitro-phenyl)-pentan-1-one]",0.4 ± 0.0 % of control,24 ± 4 % of control,8 ± 1 % of control
"O=C1c2ccccc2C(=O)c2c1cc(O)c(O)c2[N+](=O)[O-] [Compound 18, 2,3-Dihydroxy-1-nitro-anthraquinone]",2.0 ± 0.0 % of control,70 ± 5 % of control,17 ± 1 % of control
"CCCC(=O)Oc1ccc(C(=O)CCc2ccccc2)c([N+](=O)[O-])c1OC(=O)CCC [Compound 19, Butyric acid, 6-butyryloxy-2-nitro-3-(3-phenyl-propionyl)-phenyl ester]",0.2 ± 0.1 % of control,0 ± 0 % of control,8 ± 1 % of control
"CCOC(=O)Oc1ccc(C(=O)c2ccccc2)c([N+](=O)[O-])c1OC(=O)OCC [Compound 21, Carbonic acid, 4-benzoyl-2-ethoxycarbonyloxy-3-nitro-phenyl ester ethyl ester]",0.3 ± 0.2 % of control,1 ± 1 % of control,11 ± 1 % of control
"CCOC(=O)Oc1ccc(C(=O)CCc2ccccc2)c([N+](=O)[O-])c1OC(=O)OCC [Compound 22, Carbonic acid, 2-ethoxycarbonyloxy-3-nitro-4-(3-phenyl-propionyl)-phenyl ester ethyl ester]",0.3 ± 0.1 % of control,12 ± 1 % of control,9 ± 0 % of control
"CCOC(=O)Oc1cc(C(=O)c2ccccc2)c(C(=O)c2ccccc2)c([N+](=O)[O-])c1OC(=O)OCC [Compound 23, Carbonic Acid 4,5-Dibenzoyl-2-ethoxycarbonyloxy-3-nitro-phenyl Ester Ethyl Ester]",2.5 ± 1.2 % of control,24 ± 1 % of control,10 ± 1 % of control
"CC(=O)Oc1cc2c(c([N+](=O)[O-])c1OC(C)=O)C(=O)C(C)(C)CC2 [Compound 25, Acetic Acid, 3-Acetoxy-7,7-dimethyl-1-nitro-8-oxo-5,6,7,8-tetrahydro-naphthalen-2-yl Ester]",1.7 ± 0.1 % of control,39 ± 1 % of control,19 ± 1 % of control
"O=C(CCN1CCOCC1)c1ccc(O)c(O)c1[N+](=O)[O-] [Compound 26, 1-(3,4-dihydroxy-2-nitro-phenyl)-3-morpholin4-yl-propan-1-one]",0.9 ± 0.1 % of control,12 ± 1 % of control,9 ± 0 % of control
"O=C(CCN1CCCCC1)c1ccc(O)c(O)c1[N+](=O)[O-] [Compound 27, 1-(3,4-Dihydroxy-2-nitro-phenyl)-3-piperidin-1-yl-propan-1-one]",2.4 ± 0.2 % of control,5 ± 1 % of control,15 ± 1 % of control
"CC(=O)OC(=Cc1ccccc1)c1ccc(OC(C)=O)c(OC(C)=O)c1[N+](=O)[O-] [Compound 46, Acetic Acid, 2-Acetoxy4-(I-acetoxy-2-phenyl-vinyl)-3-nitro-phenyl Ester]",–,1 ± 1 % of control,–
